Results published in patent US20090275655A1, “Pharmaceutical Gallium Compositions and Methods” (priority 2008, published 2009).

Experiment: intravenous infusion in a cystic fibrosis patient, concentration of ionic gallium in sputum, plasma and whole blood
Format: in vivo, human patient
Method: During one such treatment, this patient received an infusion of gallium citrate-nitrate over 5 days at a dose of 240 mg/day, or approximately 150 mg/m^2/day, and the concentration of ionic gallium in a deep-cough sputum specimen was then measured. The gallium concentration in the sputum was 3.2 μg/ml, or approximately 46 μmol/L, which is a concentration that is adequate to kill resistant Pseudomonas organisms in vivo. See Kaneko et al., J. Clin. Invest. 117:877-888 (2007).
Beginning about 1 month later, the same patient from Example 4 was given additional infusions of gallium citrate-nitrate at doses of 200 mg/m^2/day over 5 days, and the concentration of ionic gallium in deep-cough sputum specimens was again determined. […] The concentrations at days 5-11 are high, and even after cessation of treatment they remain levels that are believed to be therapeutic in vivo.

[1] = Treatment Number Two, 200 mg/m^2/d, end of infusion, Day 5 (verification repeat)

For gallium citrate-nitrate, the “gallium concentration, Sputum” value (Treatment Number One, 150 mg/m^2/d, end of infusion, Day 5) was 2.22 µg/mL, the “gallium concentration, Sputum” value (Treatment Number Two, 200 mg/m^2/d, end of infusion, Day 5) was 2.13 µg/mL and the “gallium concentration, Whole Blood” value (Treatment Number Two, 200 mg/m^2/d, end of infusion, Day 5 20:00 h) was 1.64 µg/mL. For the same substance, the “gallium concentration, Plasma” value [1] was 1.35 µg/mL, the “gallium concentration, Sputum” value [1] was 2.65 µg/mL and the “gallium concentration, Sputum” value (Treatment Number Two, Baseline (Time 0), one month after Treatment One) was 0.32 µg/mL. The “gallium concentration, Sputum” value (Treatment Number Two, Post-Infusion, Day 6) was 1.83 µg/mL, the “gallium concentration, Sputum” value (Treatment Number Two, Post-Infusion, Day 7) was 2.04 µg/mL and the “gallium concentration, Sputum” value (Treatment Number Two, Post-Infusion, Day 9) was 4.35 µg/mL. For the same substance, the “gallium concentration, Sputum” value (Treatment Number Two, Post-Infusion, Day 11) was 4.78 µg/mL and the “sputum levels exceed plasma concentrations” value (patient, following systemic (IV) administration) was “roughly 2 fold”.
